Experimental data published in publication PMC4744544 (Analytical biochemistry, 2015).

Key:
[1] = biological target: T1, Dgt (Escherichia coli, UniProt P15723); assay: discontinuous HPLC of deoxyguanosine, Michaelis-Menten fit; type: biochemical; conditions: 20 mM Tris-HCl pH 8.0; 5 mM MgCl2; 30 °C; Dgt 0.2 nM hexamer
T1 sequence (P15723 2-505): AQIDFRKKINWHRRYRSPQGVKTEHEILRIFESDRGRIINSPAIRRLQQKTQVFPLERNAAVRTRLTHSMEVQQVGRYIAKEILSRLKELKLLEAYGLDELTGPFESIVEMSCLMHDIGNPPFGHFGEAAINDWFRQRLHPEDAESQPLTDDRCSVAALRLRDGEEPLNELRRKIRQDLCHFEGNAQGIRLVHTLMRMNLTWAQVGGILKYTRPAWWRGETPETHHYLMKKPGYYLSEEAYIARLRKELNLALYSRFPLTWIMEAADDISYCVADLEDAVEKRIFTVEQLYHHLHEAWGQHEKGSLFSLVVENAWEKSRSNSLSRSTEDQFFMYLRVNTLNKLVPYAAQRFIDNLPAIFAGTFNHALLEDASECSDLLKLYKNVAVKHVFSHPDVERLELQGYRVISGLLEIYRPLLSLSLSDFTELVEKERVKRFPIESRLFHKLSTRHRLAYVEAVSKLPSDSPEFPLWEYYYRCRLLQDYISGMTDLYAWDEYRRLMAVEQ

[2] = system: Purine Nucleoside Phosphorylase (PNPase; EC 2.4.2.1); assay: XOD-coupled absorbance at […] nm, initial velocities, Michaelis-Menten fit; type: biochemical; conditions: 100 mM Tris-HCl pH 8; 5 mM KH2PO4; PNPase 50 mU/mL; XOD 500 mU/mL as coupling enzyme

Nc1nc2c(ncn2[C@H]2C[C@H](O)[C@@H](COP(=O)(O)OP(=O)(O)OP(=O)(O)O)O2)c(=O)[nH]1 [dGTP]
Km [1]: the best fit to the data is a simple Michaelis-Menten curve

Nc1nc2c(ncn2[C@H]2C[C@H](O)[C@@H](CO)O2)c(=O)[nH]1 [deoxyguanosine]
Km [2]: 110 ± 13 µM
